# Laboratory results: US8642657B2 (Gruenenthal GmbH, priority 2003, dated 2014)
# pKi: −log10 of the molar value.
# What was measured:
# [1] = molecular target: T1, rat VR1 (Rattus norvegicus, UniProt O35433); assay: [3H]resiniferatoxin (RTX) competition binding assay, VR1-transfected CHO cells; conditions: for Ki: competition with [3H]RTX, rat VR1 in CHO cells, read-out: Ki (nM) Binding Affinity
# T1 construct: expressed in transfected cells
# Method: The pUHG102 VR1 plasmid was transfected into CHO cells containing the pTet Off regulatory plasmid (Clontech). In these cells, expression of the VR1 is repressed in the presence of tetracycline but is induced upon removal of the antibiotic. Stable clones were isolated in culture medium containing puromycin (10 μg/mL) and maintained in HAM F12 medium supplemented with tetracycline (1 μg/mL), 5 μg/ml geniticin, 25 mM HEPES, 10% FBS. Cells utilized for assays were grown in culture medium without antibiotic for 48 h before use. Cells were seeded in T75 cell culture flasks in media without antibiotics and grown to approximately 90% confluence. The flasks were then washed with PBS and harvested in 0.25% trypsin, 1 mM EDTA. The cells were pelleted by gentle centrifugation and stored at −20° C. until assay.
# Competition Binding Assay
# Binding studies with [^3H]resiniferatoxin (RTX) were carried out as described previously with minor modifications (Szallasi et al., 1992). Binding assay mixtures were set up on ice and contained 50-100 pM [^3H]RTX, various concentrations of competing ligands, 0.25 mg/mL BSA (Cohn fraction V), and about 5×10^5 VR1-transfected cells. The final volume was adjusted to 350 μL with DPBS with Ca^2+ and Mg^2+ and 0.25 mg/mL bovine serum albumin. Non-specific binding was determined in the presence of 100 nM nonradioactive RTX. The binding reaction was initiated by transferring the assay mixtures to a 37° C. water bath and was terminated after a 60 min incubation period by cooling the tubes on ice. To reduce non-specific binding, 200 μg/ml α-glycoprotein was added. Membrane-bound RTX was then separated from the free by pelleting the membranes in a Beckman 12 benchtop centrifuge (15 min, maximal velocity), the tips of the tubes containing the pellets were cut off, and the radioactivity was determined by scintillation counting. Equilibrium binding parameters (Ki and cooperativity) were determined by fitting the Hill equation to the measured values with the aid of the program MicroCal Origin 6.0.
# (§1) Initial stocks were dissolved in DMSO. For the binding assays, compounds were diluted in with DPBS with Ca^2+ and Mg^2+ and 0.25 mg/mL bovine serum albumin. For the calcium uptake assays, compounds were diluted in DMEM with 0.25 mg/mL bovine serum albumin.
# [2] = molecular target: T1, rat VR1; assay: 45Ca2+-uptake assay in CHO/VR1 cells, antagonism of capsaicin-stimulated uptake; assay type: cell-based; conditions: 45Ca2+ uptake stimulated by 50 nM capsaicin
# Method: as §1
# Molecules were characterized to determine whether they were full agonists, partial agonists, or antagonists. For studies of ^45Ca^2+ uptake by CHO/VR1 cells (Tet-off cells), the cells were plated in 24-well plates to yield a cell density 20-40% of that required to produce confluence. The next day the medium was changed to remove the tetracycline and induce VR1 expression. Experiments were performed approximately 36-40 hours after induction. For ^45Ca^2+ uptake assay, cells were incubated for 5 min at 37° C. in a total volume of 400 μL of serum free DMEM (containing 1.8 mM CaCl2) in the presence of 0.25 mg/mL BSA (Sigma), 1 μCi/mL ^45Ca^2+ (5-30 Ci/g from ICN, CA), and increasing concentrations of the compound to be tested. Immediately after the incubation, extracellular ^45Ca^2+ was removed by washing the cells three times with cold DPBS (containing 1.8 mM CaCl2). Then 400 μl RIPA buffer (50 mM Tris pH 7.4; 150 mM NaCl; 1% Triton X-100; 0.1% SDS; 1% sodium deoxycholate) was added to each well in order to lyse the cells. Plates were shaken slowly for 20 min; then 306 μL of cell lysate was transferred from each well into a scintillation vial and radioactivity was determined by scintillation counting. For each data point in each experiment, four wells were assayed. Data from these experiments were analyzed by computer fit to the Hill equation. At least 3 separate experiments were carried out for each compound. In order to determine antagonist activity, studies were performed in exactly the same fashion with the exception that 50 nM capsaicin was added to the assay mixture to stimulate ^45Ca^2+ uptake.
# T1 sequence (O35433 whole entry): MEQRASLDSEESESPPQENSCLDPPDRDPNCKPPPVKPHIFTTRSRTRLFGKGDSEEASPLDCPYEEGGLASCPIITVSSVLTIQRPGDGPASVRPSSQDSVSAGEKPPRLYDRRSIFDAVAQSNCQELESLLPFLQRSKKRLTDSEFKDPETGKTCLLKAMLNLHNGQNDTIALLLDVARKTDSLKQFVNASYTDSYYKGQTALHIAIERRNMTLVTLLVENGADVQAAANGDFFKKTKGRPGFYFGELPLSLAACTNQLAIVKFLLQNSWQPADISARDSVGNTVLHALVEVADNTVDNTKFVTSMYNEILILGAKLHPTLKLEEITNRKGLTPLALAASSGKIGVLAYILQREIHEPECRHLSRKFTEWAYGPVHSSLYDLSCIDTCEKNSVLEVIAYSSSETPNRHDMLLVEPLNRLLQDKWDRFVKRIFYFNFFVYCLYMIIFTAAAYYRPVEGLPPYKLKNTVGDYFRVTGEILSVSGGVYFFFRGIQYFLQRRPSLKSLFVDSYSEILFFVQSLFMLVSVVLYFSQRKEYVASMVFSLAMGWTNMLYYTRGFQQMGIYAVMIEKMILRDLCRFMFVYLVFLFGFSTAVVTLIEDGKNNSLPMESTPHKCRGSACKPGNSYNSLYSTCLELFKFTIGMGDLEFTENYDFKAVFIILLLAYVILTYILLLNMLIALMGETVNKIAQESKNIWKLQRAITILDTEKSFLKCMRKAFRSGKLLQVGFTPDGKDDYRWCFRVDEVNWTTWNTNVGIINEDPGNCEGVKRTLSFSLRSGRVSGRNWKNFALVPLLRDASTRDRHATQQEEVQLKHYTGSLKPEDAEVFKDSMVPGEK
Molecule,melting point [°C],Ki [1] [nM],Ki [2] [nM],pKi [1]
"COc1cc(C(C)(C)NC(=S)NCc2ccc(C(C)(C)C)cc2)ccc1NS(C)(=O)=O [21-9, N-(4-t-Butylbenzyl)-N′-{1-methyl-1-[3-methoxy-4-(methylsulfonylamino)phenyl]ethyl}thiourea]",148 to 150,2890,663,
"CC(C(=O)NCc1ccc(C(C)(C)C)cc1)c1ccc(NS(C)(=O)=O)cc1Cl (stereo not shown) [1-67, N-(4-tert-Butylbenzyl)-2-[2-chloro-4-(methylsulfonylamino)phenyl]propionamide]",134 to 136,1420,4480,
"C[C@H](NC(=S)NC[C@@H](COC(=O)C(C)(C)C)Cc1ccccc1)c1ccc(NS(C)(=O)=O)cc1 [18-4, N-[(2S)-2-Benzyl-3-(pivaloyloxy)propyl]-N′-{(1S)-1-[4-(methylsulfonylamino)phenyl]ethyl}thiourea]",62 to 64,,133,6.15
"Cc1ccc(CC(CNC(=O)C2(c3ccc(NS(C)(=O)=O)c(F)c3)CC2)COC(=O)C(C)(C)C)cc1C (stereo not shown) [12-2, N-[2-(3,4-Dimethylbenzyl)-3-pivaloyloxypropyl]-1-[3-fluoro-4-(methylsulfonylamino)phenyl]cyclopropanecarboxamide]",55 to 56,1580,567,
"CC(C(=O)NCc1ccc(Cl)c(Cl)c1)c1ccc(NS(C)(=O)=O)c(Br)c1 (stereo not shown) [4-6, N-(3,4-Dichlorobenzyl)-2-[3-bromo-4-(methylsulfonylamino)phenyl]propionamide]",161 to 162,,89.6,6.65
"CC(C)(C)c1ccc(CNC(=O)C(C)(C)c2ccc(NS(C)(=O)=O)cc2)cc1 [9-7, N-(4-tert-Butylbenzyl)-2-[4-(methylsulfonylamino)phenyl]-2-methylpropionamide]",141 to 143,,2550,6.37
"COc1cc(C(C)C(=O)NCc2ccc(C(C)(C)C)cc2)ccc1NS(C)(=O)=O (stereo not shown) [1-65, N-(4-tert-Butylbenzyl)-2-[3-methoxy-4-(methylsulfonylamino)phenyl]propionamide]",74 to 76,536,232,
"C[C@@H](C(=O)NCc1ccc(C(C)(C)C)cc1)c1ccc(NS(C)(=O)=O)c(F)c1 [3-6, N-(4-tert-Butylbenzyl)-(2R)-2-[3-fluoro-4-(methylsulfonylamino)phenyl]propionamide]",,,102,6.34
N-{1-[3-Fluoro-4-(methylsulfonylamino)phenyl]ethyl}-3-(4-chlorophenyl)propenamide [24-6],,,5650,
"Cc1ccc(CC(CNC(=S)N[C@H](C)c2ccc(NS(C)(=O)=O)cc2)COC(=O)C(C)(C)C)cc1C (stereo partly drawn) [18-6, N-[2-(3,4-Dimethylbenzyl)-3-(pivaloyloxy)propyl]-N′-{(1R)-1-[4-(methylsulfonylamino)phenyl]ethyl}thiourea]",,,6.86,8.21
"C[C@H](NC(=S)NCc1ccc(C(C)(C)C)cc1)c1ccc(NS(C)(=O)=O)c(F)c1 [17-8, (S)—N-(4-t-Butylbenzyl)-N′-{1-[3-fluoro-4-(methylsulfonylamino)phenyl]ethyl}thiourea]",,,4310,5.59
"C[C@@H](NC(=S)NCc1ccc(C(C)(C)C)cc1)c1ccc(NS(C)(=O)=O)cc1 [16-5, N-(4-t-Butylbenzyl)-N′-{(1R)-1-[4-(methylsulfonylamino)phenyl]ethyl}thiourea]",,40.8,4.52,
"C[C@@H](NC(=S)N[C@H](COC(=O)C(C)(C)C)Cc1ccccc1)c1ccc(NS(C)(=O)=O)cc1 [19-14, N-[(2S)-3-phenyl-1-pivaloyloxy-2-propyl]-N′-[(R)-α-methyl-4-(methylsulfonylamino)benzy]thiourea]",,,290,6.57
"C[C@H](C(=O)NCc1ccc(C(C)(C)C)cc1)c1ccc(NS(C)(=O)=O)c(F)c1 [3-5, N-(4-tert-Butylbenzyl)-(2S)-2-[3-fluoro-4-(methylsulfonylamino)phenyl]propionamide]",,,6.87,7.36
"COc1ccc(CNC(=O)C(C)c2ccc(NS(C)(=O)=O)c(F)c2)cc1 (stereo not shown) [4-9, N-(4-Methoxybenzyl)-2-[3-fluoro-4-(methylsulfonylamino)phenyl]propionamide]",138,,1350,
"Cc1ccc(CCCNC(=O)[C@H](C)c2ccc(NS(C)(=O)=O)c(F)c2)cc1C [4-16, N-[3-(3,4-Dimethylphenyl)propyl]-(2R)-2-[3-fluoro-4-(methylsulfonylamino)phenyl]propionamide]",,944,204,
"Cc1ccc(C[C@H](CNC(=S)N[C@H](C)c2ccc(NS(C)(=O)=O)cc2)COC(=O)C(C)(C)C)cc1C [18-7, N-[(2R)-2-(3,4-Dimethylbenzyl)-3-(pivaloyloxy)propyl]-N′-{(1R)-1-[4-(methylsulfonylamino)phenyl]ethyl}thiourea]",,,7.14,7.82
"C[C@H](C(=O)NC[C@@H](COC(=O)C(C)(C)C)Cc1ccccc1)c1ccc(NS(C)(=O)=O)c(F)c1 [6-6, N-[(2S)-2-Benzyl-3-(pivaloyloxy)propyl]-(2S)-2-[3-fluoro-4-(methylsulfonylamino)phenyl]propionamide]",,20.3,10,
"Cc1ccc(CCC(=O)NC(C)c2ccc(NS(C)(=O)=O)c(F)c2)cc1C (stereo not shown) [24-4, N-{1-[3-Fluoro-4-(methylsulfonylamino)phenyl]ethyl}-3-(3,4-dimethylphenyl)propanamide]",176 to 177,,4130,
"C[C@@H](NC(=S)NCc1ccc(C(C)(C)C)cc1)c1ccc(NS(C)(=O)=O)c(F)c1 [17-7, (R)—N-(4-t-Butylbenzyl)-N′-{1-[3-fluoro-4-(methylsulfonylamino)phenyl]ethyl}thiourea]",,,39.4,7.48
"C[C@@H](C(=O)NC[C@@H](COC(=O)C(C)(C)C)Cc1ccccc1)c1ccc(NS(C)(=O)=O)c(F)c1 [6-7, N-[(2S)-2-Benzyl-3-(pivaloyloxy)propyl]-(2R)-2-[3-fluoro-4-(methylsulfonylamino)phenyl]propionamide]",,372,205,
"C[C@@H](C(=O)NC[C@H](COC(=O)C(C)(C)C)Cc1ccccc1)c1ccc(NS(C)(=O)=O)c(F)c1 [6-8, N-[(2R)-2-Benzyl-3-(pivaloyloxy)propyl]-(2R)-2-[3-fluoro-4-(methylsulfonylamino)phenyl]propionamide]",,297,98.3,
"CC(C)(C)c1ccc(CNC(=S)NC(C)(C)c2ccc(NS(C)(=O)=O)cc2)cc1 [21-7, N-(4-t-Butylbenzyl)-N′-{1-methyl-1-[4-(methylsulfonylamino)phenyl]ethyl}thiourea]",161 to 164,,1830,
"Cc1ccc(CCCNC(=O)[C@@H](C)c2ccc(NS(C)(=O)=O)c(F)c2)cc1C [4-17, N-[3-(3,4-Dimethylphenyl)propyl]-(2S)-2-[3-fluoro-4-(methylsulfonylamino)phenyl]propionamide]",,,33.7,6.63
"Oc1cc2c(cc1O)CN(C(=S)NCCc1ccc(Cl)cc1)CCC2 [capsazepine, reference compound]",,1300,520,
N-(4-t-Butylbenzyl)-N-{1-[4-(methylsulfonylamino)phenyl]ethyl}thiourea [15-1],,59.3,14.7,
